From patent publication EP1849784A1, “Indoline-substituted pyrazoline compounds, their preparation and use as medicaments” (LABORATORIOS DEL DR. ESTEVE, S.A., priority 2006, dated 2007)

Assays:
cannabinoid receptors = test: Mouse tetrad model, antagonistic effect against Win 55212-2; assay type: in vivo, Male NMRI mice; conditions: for Antagonistic Effect in (%): against Win 55212-2 (1.25 mg/kg intravenous), substance injected 5 minutes before, tetrad parameter not specified; for Antagonism (%): summary table 1
From the text: Substances with affinity for cannabinoid receptors are known to produce a wide range of pharmacological effects. It is also known that intravenous administration of a substance with affinity for cannabinoid receptors in mice produces analgesia , hypothermia, sedation and catalepsy. Individually, none of these effects can be considered as proof that a tested substance has affinity for cannabinoid-receptors, since all of these effects are common for various classes of centrally active agents. However, substances, which show all of these effects, i.e. substances that are active in this so-called tetrad model are considered to have affinity for the cannabinoid receptors. It has further been shown that cannabinoid receptor antagonists are higly effective in blocking the effects of a cannabinoid agonist in the mouse tetrad model.
The tetrad model is described, for example, in the publication of A. C. Howlett et al, International Union of Pharmacology XXVII. Classification of Cannabinoid Receptors, Pharmacol Rev 54,161-202, 2002 and David R. Compton et al., "In-vivo Characterization of a Specific Cannabinoid Receptor Antagonist (SR141716A) :Inhibition of Tetrahydrocannbinol- induced Responses and Apparent Agonist Activity", J. Pharmacol. Exp. Ther. 277 , 2, 586-594, 1996. The corresponding parts of the description are hereby incorporated by reference.
Male NMRI mice with a weight of 20-30 g (Harlan, Barcelona, Spain) are used in all of the following experiments.
Before testing in the behavioral procedures given below, mice are acclimatized to the experimental setting. Pre-Treatment control values are determined for analgesia hot plate latency (in seconds), rectal temperature, sedation and catalepsy.
In order to determine the agonistic activty of the substance to be tested, the mice are injected intravenously with the substance to be tested or the vehicle alone. 15 minutes after injection, latency in hot plate analgesia is measured. Rectal temperature, sedation and catalepsy are measured 20 minutes after injection.
In order to determine the antagonistic activity the identical procedure is used as for the determination of the agonistic effects, but with the difference that the substance to be evaluated for its antagonistic activity is injectected 5 minutes before the intravenous injection of 1.25 mg/kg Win-55,212 a known cannabinoid-receptor agonist.
The hot plate analgesia is determined according to the method described in Woolfe D. et al. "The evaluation of analgesic action of pethidine hydrochloride (Demerol)", J. Pharmacol. Exp. Ther. 80, 300-307,1944. The respective description is hereby incorporated by reference and forms part of the present disclosure.
The mice are placed on a hot plate (Harvard Analgesimeter) at 55 ± 0.5 °C until they show a painful sensation by licking their paws or jumping and the time for these sensations to occur is recorded. This reading is considered the basal value (B). The maximum time limit the mice are allowed to remain on the hot plate in absence of any painful response is 40 seconds in order to prevent skin damage. This period is called the cut-off time (PC).
Fifteen minuts after the administration of the substance to be tested, the mice are again placed on the hot plate and the afore described procedure is repeated. This period is called the post-treatment reading (PT).
The degree of analgesia is calculated from the formula: % MPE of Analgesia = (PT-B)/(PC-B) × 100 [formula] MPE = Maximum possible effect.
Sedation and ataxia is determined according to the method described in Desmet L. K. C. et al. "Anticonvulsive properties of Cinarizine and Flunarizine in Rats and Mice", Arzneim. -Forsch. (Frug Res) 25, 9, 1975. The respective description is hereby incorporated by reference and forms part of the present disclosure.
The chosen scoring system is • 0: no ataxia; • 1: doubful; • 2: obvious calmness and quiet; • 3 pronounced ataxia; prior to as well as after treatment. […]

CB1-Receptor = biological target: T1, CB1-Receptor (Homo sapiens, UniProt P21554); test: In-vitro determination of affinity to CB1-Receptor (radioligand binding); conditions: transfected human CB1 receptors; radioligand [^3H]-CP55940; read-out: CB1-Receptor Radiologand:[^3H]-CP55940 IC50
T1 construct: purchased Receptor Biology, Inc
Description: The in-vitro determination of the affinity of the inventive quaternary ammonium salts of substituted pyrazoline compounds to CB1/CB2Rezeptors is carried out as described in the publication of Ruth A. Ross, Heather C. Brockie et al., "Agonist-inverse agonist characterization at CB1 and CB2 cannabinoid receptors of L-759633, L759656 and AM630", British Journal of Pharmacology, 126, 665-672, (1999), whereby the transfected human CB1 and CB2 receptors of Receptor Biology, Inc. are used. The radioligand used for both receptors is [^3H]-CP55940. The respective parts of the description are hereby incorporated by reference and forms part of the present disclosure.

T1 sequence (P21554 whole entry): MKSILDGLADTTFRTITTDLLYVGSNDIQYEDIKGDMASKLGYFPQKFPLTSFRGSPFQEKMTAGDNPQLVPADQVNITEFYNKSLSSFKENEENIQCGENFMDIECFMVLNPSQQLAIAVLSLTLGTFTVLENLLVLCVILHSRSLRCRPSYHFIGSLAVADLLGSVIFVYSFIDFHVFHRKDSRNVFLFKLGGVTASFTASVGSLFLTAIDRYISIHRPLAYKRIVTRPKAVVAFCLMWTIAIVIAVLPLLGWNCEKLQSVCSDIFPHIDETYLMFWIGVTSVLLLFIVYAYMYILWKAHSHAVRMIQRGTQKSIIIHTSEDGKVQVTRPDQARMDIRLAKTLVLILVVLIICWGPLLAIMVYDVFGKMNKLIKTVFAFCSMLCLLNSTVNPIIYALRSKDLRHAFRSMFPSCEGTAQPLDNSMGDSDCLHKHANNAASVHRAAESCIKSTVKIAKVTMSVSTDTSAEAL

| Antagonistic Effect in (%) (cannabinoid receptors) | Antagonism (%) (cannabinoid receptors) | IC50 (CB1-Receptor) [nM] | SMILES |
| --- | --- | --- | --- |
| 33 | 33 |  | CC1Cc2ccccc2N1NC(=O)C1=NN(c2ccc(Cl)cc2Cl)C(c2ccc(Cl)cc2)C1 (stereo not shown) [Example 1, 5-(4-chlorophenyl)-1-(2,4-dichlorophenyl)-N-(2-methylindolin-1-yl)-4,5-dihydro-1H-pyrazole-3-carboxamide] |
| 65±15 | 65 ± 15 | 100 | O=C(NN1CCc2ccccc21)C1=NN(c2ccc(Cl)cc2Cl)C(c2ccc(Cl)cc2)C1 (stereo not shown) [Example 2, 5-(4-chlorophenyl)-1-(2,4-dichlorophenyl)-N-(indolin-1-yl)-4,5-dihydro-1H-pyrazole-3-carboxamide] |

| SMILES | Antagonistic Effect in (%) (cannabinoid receptors) | Antagonism (%) (cannabinoid receptors) | IC50 (CB1-Receptor) [nM] |
| --- | --- | --- | --- |
| O=C(NN1CCc2ccccc21)C1=NN(c2ccc(Cl)cc2Cl)C(c2ccc(Br)cc2)C1 (stereo not shown) [Example 6, 5-(4-bromophenyl)-1-(2,4-dichlorophenyl)-N-(indolin-1-yl)-4,5-dihydro-1H-pyrazole-3-carboxamide] | 88 ± 10 | 88 ± 10 |  |
